Experimental data reported in US20230233569A1 (Revolution Medicines, Inc., priority 2020, published 2023).
Values joined by “and” are separate entries in the source; they are usually repeats but may differ in a detail not shown here. Identical values can stand only once. Like-named read-outs stand apart in the source and are kept apart here.

Legend:
KRAS Q61H = KRAS Q61H (Homo sapiens, UniProt P01116+P62937, Q61H); assay: Disruption of BRAF RBD interaction with Ras (FRET / MOA assay, with Cyclophilin A); format: biochemical; details: KRAS Q61H; read-out: KRAS Q61H FRET data IC50
KRAS Q61H, sequence (P01116 1-169 isoform P01116-2 Q61H limits assumed): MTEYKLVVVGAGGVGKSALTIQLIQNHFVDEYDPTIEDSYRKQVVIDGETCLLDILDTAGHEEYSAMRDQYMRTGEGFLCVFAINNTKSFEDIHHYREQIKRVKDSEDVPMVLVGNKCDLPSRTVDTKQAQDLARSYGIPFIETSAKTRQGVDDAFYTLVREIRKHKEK
KRAS Q61H, sequence (P62937 whole entry): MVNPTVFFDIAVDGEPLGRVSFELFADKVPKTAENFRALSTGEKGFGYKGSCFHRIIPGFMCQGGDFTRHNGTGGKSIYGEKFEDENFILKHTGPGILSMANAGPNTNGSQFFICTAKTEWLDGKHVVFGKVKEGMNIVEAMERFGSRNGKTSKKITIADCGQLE
Method in brief: (§1)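 TR-FRET in 25 mM HEPES pH 7.3, 100 mM NaCl, 5 mM MgCl2, 0.1% BSA: 25 μM Cyclophilin A, 12.5 nM His6-Ras-GMPPNP, 50 nM GST-BRAF RBD with compound (10-point 3-fold series from 30 μM), 3 h at 25° C. Anti-His Eu/anti-GST APC added, 1.5 h more; IC50 from decreased FRET ratio versus DMSO.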

NRAS WT = NRAS WT (Homo sapiens, UniProt P01111+P62937); assay: as above; format: biochemical; details: NRAS WT; read-out: NRAS WT FRET data IC50
NRAS WT, sequence (P01111 whole entry): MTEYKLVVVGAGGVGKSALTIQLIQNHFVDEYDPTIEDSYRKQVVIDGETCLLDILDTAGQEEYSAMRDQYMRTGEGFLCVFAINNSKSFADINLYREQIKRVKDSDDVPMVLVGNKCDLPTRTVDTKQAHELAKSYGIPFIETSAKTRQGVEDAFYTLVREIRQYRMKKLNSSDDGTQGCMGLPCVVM
NRAS WT, sequence (P62937 whole entry): as the sequence (P62937 whole entry) above
Method in brief: as §1

NRAS Q61R = NRAS Q61R (Homo sapiens, UniProt P01111+P62937, Q61R); assay: as above; format: biochemical; details: NRAS Q61R; read-out: NRAS Q61R FRET data IC50
NRAS Q61R, sequence (P01111 whole entry Q61R): as the sequence (P01111 whole entry) above, with Q61R counted along it
NRAS Q61R, sequence (P62937 whole entry): as the sequence (P62937 whole entry) above
Method in brief: as §1

NRAS Q61K = NRAS Q61K (Homo sapiens, UniProt P01111+P62937, Q61K); assay: as above; format: biochemical; details: NRAS Q61K; read-out: NRAS Q61K FRET data IC50
NRAS Q61K, sequence (P01111 whole entry Q61K): as the sequence (P01111 whole entry) above, with Q61K counted along it
NRAS Q61K, sequence (P62937 whole entry): as the sequence (P62937 whole entry) above
Method in brief: as §1

KRAS G12C = KRAS G12C (Homo sapiens, UniProt P01116+P62937, G12C); assay: as above; format: biochemical
KRAS G12C, sequence (P01116 1-169 isoform P01116-2 G12C): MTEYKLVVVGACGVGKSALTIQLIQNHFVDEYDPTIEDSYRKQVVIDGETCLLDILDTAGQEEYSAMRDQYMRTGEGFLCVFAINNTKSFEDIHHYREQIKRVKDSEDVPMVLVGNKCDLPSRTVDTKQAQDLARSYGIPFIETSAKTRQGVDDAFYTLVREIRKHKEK
KRAS G12C, sequence (P62937 whole entry): as the sequence (P62937 whole entry) above
Method in brief: (§2)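 TR-FRET: nucleotide-loaded K-Ras mutant or WT with Cyclophilin A and BRAF RBD, compound 10-point 3-fold from 30 μM final, 3 h at 25° C, then anti-His Eu (10 nM) and anti-GST APC (50 nM) for 1.5 h. Decreased FRET ratio versus DMSO gives IC50.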

NRAS G12C = NRAS G12C (Homo sapiens, UniProt P01111+P62937, G12C); assay: as above; format: biochemical; details: NRAS G12C; read-out: NRAS G12C FRET data IC50
NRAS G12C, sequence (P01111 whole entry G12C): as the sequence (P01111 whole entry) above, with G12C counted along it
NRAS G12C, sequence (P62937 whole entry): as the sequence (P62937 whole entry) above

KRAS G13D = KRAS G13D (Homo sapiens, UniProt P01116+P62937, G13D); assay: as above; format: biochemical; details: KRAS G13D; read-out: KRAS G13D FRET data IC50
KRAS G13D, sequence (P01116 1-169 isoform P01116-2 G13D limits assumed): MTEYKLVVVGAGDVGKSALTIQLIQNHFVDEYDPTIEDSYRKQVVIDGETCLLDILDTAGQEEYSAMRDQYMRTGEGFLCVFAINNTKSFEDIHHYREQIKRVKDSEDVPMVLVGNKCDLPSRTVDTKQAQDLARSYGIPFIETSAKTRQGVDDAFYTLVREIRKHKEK
KRAS G13D, sequence (P62937 whole entry): as the sequence (P62937 whole entry) above
Method in brief: as §2

KRAS G13C = KRAS G13C (Homo sapiens, UniProt P01116+P62937, G13C); assay: as above; format: biochemical
KRAS G13C, sequence (P01116 1-169 isoform P01116-2 G13C): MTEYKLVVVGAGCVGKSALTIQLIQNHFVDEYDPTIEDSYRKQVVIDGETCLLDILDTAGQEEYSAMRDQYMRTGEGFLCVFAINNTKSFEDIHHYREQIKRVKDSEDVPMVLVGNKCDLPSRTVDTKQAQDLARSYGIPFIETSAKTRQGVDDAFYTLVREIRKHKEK
KRAS G13C, sequence (P62937 whole entry): as the sequence (P62937 whole entry) above
Method in brief: as §2

KRAS G12D = KRAS G12D (Homo sapiens, UniProt P01116+P62937, G12D); assay: as above; format: biochemical; details: read-out: KRAS G12D FRET data, IC50
KRAS G12D, sequence (P01116 1-169 isoform P01116-2 G12D limits assumed): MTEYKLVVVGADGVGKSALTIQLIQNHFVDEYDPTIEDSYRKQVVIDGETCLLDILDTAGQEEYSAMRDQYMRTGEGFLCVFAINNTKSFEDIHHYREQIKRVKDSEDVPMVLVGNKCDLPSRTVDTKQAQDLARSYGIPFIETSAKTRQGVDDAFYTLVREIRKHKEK
KRAS G12D, sequence (P62937 whole entry): as the sequence (P62937 whole entry) above
Method in brief: as §2

KRAS G12V = KRAS G12V (Homo sapiens, UniProt P01116+P62937, G12V); assay: as above; format: biochemical; details: KRAS G12V; read-out: KRAS G12V FRET data IC50
KRAS G12V, sequence (P01116 1-169 isoform P01116-2 G12V limits assumed): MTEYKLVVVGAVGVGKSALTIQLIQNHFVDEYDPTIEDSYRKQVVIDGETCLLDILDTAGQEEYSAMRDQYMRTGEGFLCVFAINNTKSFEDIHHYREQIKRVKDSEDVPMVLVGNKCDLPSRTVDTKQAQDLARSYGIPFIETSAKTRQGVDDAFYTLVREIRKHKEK
KRAS G12V, sequence (P62937 whole entry): as the sequence (P62937 whole entry) above
Method in brief: as §2

KRAS G12S = KRAS G12S (Homo sapiens, UniProt P01116+P62937, G12S); assay: as above; format: biochemical; details: read-out: KRAS G12S FRET data, IC50
KRAS G12S, sequence (P01116 1-169 isoform P01116-2 G12S limits assumed): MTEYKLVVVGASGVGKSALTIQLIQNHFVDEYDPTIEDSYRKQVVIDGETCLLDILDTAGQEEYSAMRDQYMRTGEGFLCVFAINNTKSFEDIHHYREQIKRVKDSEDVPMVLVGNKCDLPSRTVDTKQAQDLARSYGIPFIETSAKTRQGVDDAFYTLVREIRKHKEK
KRAS G12S, sequence (P62937 whole entry): as the sequence (P62937 whole entry) above
Method in brief: as §2

KRAS WT = KRAS WT (Homo sapiens, UniProt P01116+P62937); assay: as above; format: biochemical; details: KRAS WT; read-out: KRAS WT FRET data IC50
KRAS WT, sequence (P01116 1-169 isoform P01116-2 limits assumed): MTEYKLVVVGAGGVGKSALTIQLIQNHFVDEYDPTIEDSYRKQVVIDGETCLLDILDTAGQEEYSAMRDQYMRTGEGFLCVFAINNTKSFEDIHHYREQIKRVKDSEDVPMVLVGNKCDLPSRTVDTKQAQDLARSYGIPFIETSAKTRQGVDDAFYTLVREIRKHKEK
KRAS WT, sequence (P62937 whole entry): as the sequence (P62937 whole entry) above
Method in brief: as §2

NCI-H358 (K-Ras G12C) = assay: CellTiter-Glo cell viability assay, 5-day treatment; format: cell-based; details: Homo sapiens
Method in brief: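 Viability is read as luminescence on day 5 after direct compound addition to plated cells, following about 30 minutes' room-temperature equilibration. Each signal is scaled to mean DMSO as 100%.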

[1] = KRAS G12C, read-out: KRAS G12C FRET data IC50
[2] = KRAS G13C, read-out: KRAS G13C FRET data IC50

Compound	IC50 (KRAS Q61H)	IC50 (NRAS WT)	IC50 (NRAS Q61R)	IC50 (NRAS Q61K)	IC50 (KRAS G12C; [1])	IC50 (NRAS G12C)	IC50 (KRAS G13D)	IC50 (KRAS G13C; [2])	IC50 (KRAS G12D)	IC50 (KRAS G12V)	IC50 (KRAS G12S)	IC50 (KRAS WT)	IC50 (NCI-H358 (K-Ras G12C); NCI-H358, 120 h, 5-day treatment, read-out: H358 Cell Viability assay data (K-Ras G12C, IC50))	IC50 (KRAS G12C; read-out: KRAS G12C FRET data, IC50)	IC50 (KRAS G13C; read-out: KRAS G13C FRET data, IC50)	IC50 (NCI-H358 (K-Ras G12C); NCI-H358, H358, K-Ras G12C, read-out: Additional H358 Cell Viability assay data (K-Ras G12C, IC50))
CCn1c(-c2cccnc2[C@H](C)OC)c2c3cc(ccc31)-c1cc(O)cc(c1)C[C@H](NC(=O)C13CCCC1C3(F)F)C(=O)N1CCC[C@H](N1)C(=O)OCC(C)(C)C2 (some centres unmarked) [Example A180]	100 to 1000 nM	1000 to 10000 nM	1000 to 10000 nM	1000 to 10000 nM												
CCn1c(-c2cccnc2[C@H](C)OC)c2c3cc(ccc31)-c1csc(n1)C[C@H](NC(=O)[C@H](C(C)C)N(C)C(=O)N1[C@H](C)COC[C@H]1C)C(=O)N1CCC[C@H](N1)C(=O)OCC(C)(C)C2 (atropisomer, axis not shown) [Example A275]	< 10 nM	10 to 100 nM	10 to 100 nM	< 10 nM												
CCn1c(-c2cccnc2[C@H](C)OC)c2c3cc(ccc31)-c1csc(n1)C[C@H](NC(=O)[C@H](C(C)C)N(C)C(=O)N1CC(OC)C1)C(=O)N1CCC[C@H](N1)C(=O)OCC(C)(C)C2 (racemic) [Example A205]	10 to 100 nM	100 to 1000 nM	100 to 1000 nM	10 to 100 nM									< 10 nM			
CCn1c(-c2cccnc2[C@H](C)OC)c2c3cc(ccc31)-c1cc(O)cc(c1)C[C@H](NC(=O)C1[C@H]3COC[C@@H]13)C(=O)N1CCC[C@H](N1)C(=O)OCC(C)(C)C2 (some centres unmarked) [Example A253]	100 to 1000 nM	100 to 1000 nM	1000 to 10000 nM	1000 to 10000 nM		1000 to 10000 nM	1000 to 10000 nM and > 10000 nM		1000 to 10000 nM and > 10000 nM	1000 to 10000 nM	1000 to 10000 nM and > 10000 nM	1000 to 10000 nM		100 to 1000 nM and 1000 to 10000 nM	100 to 1000 nM and 1000 to 10000 nM	
C=CC(=O)N1CC2(CCN2C(=O)N(C)[C@H](C(=O)N[C@H]2Cc3nc(n(C)n3)-c3ccc4c(c3)c(c(-c3cccnc3[C@H](C)OC)n4CC)CC(C)(C)COC(=O)C3CCCN(N3)C2=O)C(C)C)C1 (some centres unmarked) [Example A612]	10 to 100 nM		10 to 100 nM	10 to 100 nM	10 to 100 nM	< 10 nM	100 to 1000 nM	100 to 1000 nM	100 to 1000 nM	100 to 1000 nM	100 to 1000 nM	100 to 1000 nM				100 to 1000 nM

The next lines start with the values.

IC50 (KRAS Q61H)	IC50 (NRAS WT)	IC50 (NRAS Q61R)	IC50 (NRAS Q61K)	IC50 (KRAS G12C; [1])	IC50 (NRAS G12C)	IC50 (KRAS G13D)	IC50 (KRAS G13C; [2])	IC50 (KRAS G12D)	IC50 (KRAS G12V)	IC50 (KRAS G12S)	IC50 (KRAS WT)	IC50 (NCI-H358 (K-Ras G12C); NCI-H358, 120 h, 5-day treatment, read-out: H358 Cell Viability assay data (K-Ras G12C, IC50))	IC50 (KRAS G12C; read-out: KRAS G12C FRET data, IC50)	IC50 (KRAS G13C; read-out: KRAS G13C FRET data, IC50)	IC50 (NCI-H358 (K-Ras G12C); NCI-H358, H358, K-Ras G12C, read-out: Additional H358 Cell Viability assay data (K-Ras G12C, IC50))	Compound
100 to 1000 nM	100 to 1000 nM	1000 to 10000 nM	100 to 1000 nM													CCn1c(-c2cccnc2[C@H](C)OC)c2c3cc(ccc31)-c1cc(O)cc(c1)C[C@H](NC(=O)[C@@H]1[C@H](C)CCN1C(C)=O)C(=O)N1CCC[C@H](N1)C(=O)OCC(C)(C)C2 [Example A144]
10 to 100 nM		100 to 1000 nM	100 to 1000 nM	10 to 100 nM and < 10 nM	< 10 nM	10 to 100 nM	10 to 100 nM	100 to 1000 nM	10 to 100 nM	10 to 100 nM	10 to 100 nM					C=CC(=O)N1CC[C@H](C(=O)N(C)[C@H](C(=O)N[C@H]2Cc3cc(O)cc(c3)-c3ccc4c(c3)c(c(-c3cnccc3[C@H](C)OC)n4CC)CC(C)(C)COC(=O)[C@@H]3CCCN(N3)C2=O)C(C)C)C1 [Example A076]
100 to 1000 nM	100 to 1000 nM	1000 to 10000 nM	1000 to 10000 nM													CCn1c(-c2cccnc2[C@H](C)OC)c2c3cc(ccc31)-c1cc(O)cc(c1)C[C@H](NC(=O)[C@H](C(C)C)N(C)C(=O)[C@H]1[C@@H]3CNC[C@@H]31)C(=O)N1CCC[C@H](N1)C(=O)OCC(C)(C)C2 [Example A163]
